Results as given in PubChem BioAssay AID248 (DTP/NCI, 2004).
Inconclusive results and toxic doses are left out. No stated cut-off is given here; in the data, active means T/C of 150% or more; inactive means T/C below 125%. Square brackets hold non-standard residues; d marks the D form. Peptide text beside a SMILES is read from it. * marks the point of attachment. ξ: configuration not given here. Cbz = O=C(OCc1ccccc1)*; ξV = CC(C)C(N)C(=O)O; OBn = c1ccc(CO*)cc1

Test system: L1210 leukemia ip in BDF1 mice, survival T/C
Assay: NCI In Vivo Anticancer Drug Screen. Data for tumor model L1210 Leukemia (intraperitoneal) in B6D2F1 (BDF1) mice
Details: endpoint: mean survival time, higher = longer survival
Method in brief: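 Tumor cells were implanted, animals were treated, and survival was followed. The result divides the treated measurement by the vehicle-control measurement.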

[1] = dose: 100.0 mg/kg/injection, schedule: Q01DX009 (ip), vehicle: saline with Tween-80
[2] = dose: 200.0 mg/kg/injection, schedule: Q01DX009 (ip), vehicle: saline with Tween-80
[3] = dose: 400.0 mg/kg/injection, schedule: Q01DX009 (ip), vehicle: saline with Tween-80
[4] = dose: 100.0 mg/kg/injection, schedule: Q04DX002 (ip), vehicle: Klucel (hydroxypropylcellulose) (HPC)
[5] = dose: 200.0 mg/kg/injection, schedule: Q04DX002 (ip), vehicle: Klucel (hydroxypropylcellulose) (HPC)
[6] = dose: 400.0 mg/kg/injection, schedule: Q04DX002 (ip), vehicle: Klucel (hydroxypropylcellulose) (HPC)
[7] = dose: 25.0 mg/kg/injection, schedule: Q04DX003 (ip), vehicle: Klucel (hydroxypropylcellulose) (HPC)
[8] = dose: 50.0 mg/kg/injection, schedule: Q04DX003 (ip), vehicle: Klucel (hydroxypropylcellulose) (HPC)
[9] = dose: 100.0 mg/kg/injection, schedule: Q01DX009 (ip), vehicle: Klucel (hydroxypropylcellulose) (HPC)
[10] = dose: 100.0 mg/kg/injection, schedule: Q04DX003 (ip), vehicle: Klucel (hydroxypropylcellulose) (HPC)
[11] = dose: 200.0 mg/kg/injection, schedule: Q01DX009 (ip), vehicle: Klucel (hydroxypropylcellulose) (HPC)
[12] = dose: 200.0 mg/kg/injection, schedule: Q04DX003 (ip), vehicle: Klucel (hydroxypropylcellulose) (HPC)
[13] = dose: 400.0 mg/kg/injection, schedule: Q01DX009 (ip), vehicle: Klucel (hydroxypropylcellulose) (HPC)
[14] = dose: 400.0 mg/kg/injection, schedule: Q04DX003 (ip), vehicle: Klucel (hydroxypropylcellulose) (HPC)
[15] = dose: 100.0 mg/kg/injection, schedule: Q04DX003 (ip), vehicle: saline with Tween-80
[16] = dose: 200.0 mg/kg/injection, schedule: Q04DX003 (ip), vehicle: saline with Tween-80
[17] = dose: 400.0 mg/kg/injection, schedule: Q04DX003 (ip), vehicle: saline with Tween-80
[18] = dose: 100.0 mg/kg/injection, schedule: Q04DX003 (ip), vehicle: saline
[19] = dose: 200.0 mg/kg/injection, schedule: Q04DX003 (ip), vehicle: saline
[20] = dose: 100.0 mg/kg/injection, schedule: Q01DX001 (ip), vehicle: saline
[21] = dose: 200.0 mg/kg/injection, schedule: Q01DX001 (ip), vehicle: saline
[22] = dose: 400.0 mg/kg/injection, schedule: Q01DX001 (ip), vehicle: saline
[23] = dose: 12.5 mg/kg/injection, schedule: Q01DX009 (ip), vehicle: saline with Tween-80
[24] = dose: 25.0 mg/kg/injection, schedule: Q01DX009 (ip), vehicle: saline with Tween-80

Measured: T/C

CCCCCCCc1ccc(N=Cc2ccc(OCCC)cc2)cc1
inactive: [1] 100 % of control | [2] 87 % of control | [3] 86 % of control

Cc1nc(N(C)CC(=O)O)ncc1C(=O)O
inactive: [4] 91 % of control | [5] 91 % of control | [6] 94 % of control

O=S(=O)(c1ccc(Cl)cc1)C(F)F
inactive: dose: 12.5 mg/kg/injection, schedule: Q01DX009 (ip), vehicle: Klucel (hydroxypropylcellulose) (HPC) 89 % of control | dose: 12.5 mg/kg/injection, schedule: Q04DX003 (ip), vehicle: Klucel (hydroxypropylcellulose) (HPC) 91 % of control | dose: 25.0 mg/kg/injection, schedule: Q01DX009 (ip), vehicle: Klucel (hydroxypropylcellulose) (HPC) 93 % of control | [7] 89 % of control | dose: 50.0 mg/kg/injection, schedule: Q01DX009 (ip), vehicle: Klucel (hydroxypropylcellulose) (HPC) 91 % of control | [8] 97 % of control

CC(Cl)(S(=O)c1ccccc1)C1(O)CCCCC1 (stereo not given)
inactive: dose: 100.0 mg/kg/injection, schedule: Q03DX002 (ip), vehicle: saline with Tween-80 113 % of control | dose: 200.0 mg/kg/injection, schedule: Q03DX002 (ip), vehicle: saline with Tween-80 102 % of control | dose: 400.0 mg/kg/injection, schedule: Q03DX002 (ip), vehicle: saline with Tween-80 105 % of control

O=S(=O)(C1CCCCC1)C1CCCC1
inactive: [9] 97 % of control | [10] 102 % of control | [11] 100 % of control | [12] 105 % of control | [13] 107 % of control | [14] 107 % of control

O=P(Oc1ccc(S(=O)(=O)c2ccccc2)cc1)(Oc1ccc(S(=O)(=O)c2ccccc2)cc1)Oc1ccc(S(=O)(=O)c2ccccc2)cc1
inactive: [1] 90 % of control | [15] 90 % of control | [2] 93 % of control | [16] 91 % of control | [3] 91 % of control | [17] 95 % of control

Cc1ccc(S(=O)(=O)OC2COCOC2C2(OS(=O)(=O)c3ccc(C)cc3)COCOC2)cc1 (stereo not given)
inactive: [4] 101 % of control | [5] 101 % of control | [6] 104 % of control

CC(C)C(NC(=O)CNC(=O)CNC(=O)OCc1ccccc1)C(=O)OCc1ccccc1 (stereo not drawn) (Cbz-Gly-Gly-[ξV]-OBn)
inactive: [10] 95 % of control | [12] 96 % of control | [14] 96 % of control

CCCCNC(C)(C)C(=O)c1cccs1
inactive: [18] 102 % of control | [19] 86 % of control

COc1ccc(C(=O)C(C)Br)c(OCc2ccccc2)c1OC (stereo not given)
inactive: [1] 107 % of control | [15] 106 % of control | [2] 97 % of control | [16] 90 % of control | [3] 98 % of control | [17] 105 % of control

CCCCCCCCCCCCN1CC1
inactive: dose: 10.0 mg/kg/injection, schedule: Q01DX009 (ip), vehicle: Klucel (hydroxypropylcellulose) (HPC) 108 % of control | dose: 20.0 mg/kg/injection, schedule: Q01DX009 (ip), vehicle: Klucel (hydroxypropylcellulose) (HPC) 109 % of control

O=C(c1cccc([N+](=O)[O-])c1)c1sc2ccccc2c1O
inactive: dose: 50.0 mg/kg/injection, schedule: Q04DX002 (ip), vehicle: Klucel (hydroxypropylcellulose) (HPC) 90 % of control | [4] 93 % of control | [5] 88 % of control

O=C1NC(=O)C(c2ccc(F)cc2)N1 (stereo not given)
inactive: dose: 50.0 mg/kg/injection, schedule: Q01DX001 (ip), vehicle: saline 100 % of control | [20] 100 % of control | [21] 97 % of control | [22] 97 % of control

CN(C)c1cc(O)ccc1[N+](=O)[O-]
inactive: [18] 103 % of control | [19] 95 % of control | dose: 400.0 mg/kg/injection, schedule: Q04DX003 (ip), vehicle: saline 100 % of control

CC(=O)NC(=O)CC(O)(c1ccccc1)c1ccccc1
inactive: [1] 96 % of control | [2] 91 % of control | [3] 92 % of control

C[N+]1(CC(O)COc2ccc(Nc3ccc(N)c4c3C(=O)c3ccccc3C4=O)cc2)CCOCC1 (stereo not given)
inactive: dose: 100.0 mg/kg/injection, schedule: Q01DX001 (ip), vehicle: acetone 90 % of control

CCOC(=O)OC(C#N)c1ccccc1 (stereo not given)
inactive: [23] 93 % of control | [24] 94 % of control

ClCC[N+]12CC[N+](CCCl)(CC1)C2
inactive: dose: 75.0 mg/kg/injection, schedule: Q01DX001 (ip), vehicle: saline 105 % of control | dose: 150.0 mg/kg/injection, schedule: Q01DX001 (ip), vehicle: saline 120 % of control

Nc1ccc(-c2ccc(Nc3cc(S(=O)(=O)O)c(N)c4c3C(=O)c3ccccc3C4=O)cc2)c(S(=O)(=O)O)c1
inactive: dose: 10.0 mg/kg/injection, schedule: Q01DX001 (ip), vehicle: acetone 96 % of control | dose: 20.0 mg/kg/injection, schedule: Q01DX001 (ip), vehicle: acetone 89 % of control | dose: 40.0 mg/kg/injection, schedule: Q01DX001 (ip), vehicle: acetone 100 % of control

C=C1C(=O)OC2CC(C)C3C4OC4C(O)C3(C)C(O)C12 (stereo not given)
inactive: dose: 9.38 mg/kg/injection, schedule: Q01DX009 (ip), vehicle: saline with Tween-80 104 % of control | dose: 18.75 mg/kg/injection, schedule: Q01DX009 (ip), vehicle: saline with Tween-80 106 % of control | dose: 37.5 mg/kg/injection, schedule: Q01DX009 (ip), vehicle: saline with Tween-80 102 % of control

Cc1cc(NS(=O)(=O)c2ccc(N=Nc3ccc(N)nc3N)cc2)nc(C)n1
inactive: [20] 102 % of control | [21] 105 % of control | [22] 100 % of control

CN(/N=N/c1nc[nH]c1C(N)=O)C(C)(C)C
inactive: [23] 103 % of control | dose: 12.5 mg/kg/injection, schedule: Q04DX009 (ip), vehicle: saline with Tween-80 98 % of control | [24] 93 % of control | [7] 100 % of control | dose: 25.0 mg/kg/injection, schedule: Q04DX009 (ip), vehicle: saline with Tween-80 103 % of control | dose: 50.0 mg/kg/injection, schedule: Q01DX009 (ip), vehicle: saline with Tween-80 101 % of control | [8] 103 % of control | dose: 50.0 mg/kg/injection, schedule: Q04DX009 (ip), vehicle: saline with Tween-80 103 % of control | [9] 97 % of control | [1] 103 % of control | [10] 102 % of control | dose: 100.0 mg/kg/injection, schedule: Q04DX009 (ip), vehicle: saline with Tween-80 103 % of control | [11] 96 % of control | [2] 103 % of control | [12] 111 % of control | dose: 200.0 mg/kg/injection, schedule: Q04DX009 (ip), vehicle: saline with Tween-80 101 % of control | [13] 97 % of control | [3] 97 % of control | [14] 105 % of control | dose: 400.0 mg/kg/injection, schedule: Q04DX009 (ip), vehicle: saline with Tween-80 101 % of control
